According to PMC4549746, “Zearalenone in the Intestinal Tissues of Immature Gilts Exposed per os to Mycotoxins” (Toxins, 2015):
Like-named read-outs stand apart in the source and are kept apart here.

Test: ZEN concentrations and carryover factor in intestinal tissues and liver of pre-pubertal gilts exposed per os (HPLC)
Assay type: in vivo
Settings: 40 μg/kg BW daily per os; for concentration at 4 weeks / concentration at 5 weeks / concentration at 1 week / concentration at 2 weeks / concentration at 3 weeks / concentration at 6 weeks: female, pig, oral; for concentration at 4 weeks: Week IV of exposure, total ZEN dose 1120 µg/kg BW; for concentration at 5 weeks: Week V of exposure, total ZEN dose 1400 µg/kg BW; for concentration at 1 week: Week I of exposure, total ZEN dose 280 µg/kg BW; for concentration at 2 weeks: Week II of exposure, total ZEN dose 560 µg/kg BW; for concentration at 3 weeks: Week III of exposure, total ZEN dose 840 µg/kg BW
Protocol: The animals were divided into an experimental group (E, n = 18) and a control group (C, n = 21). Group E animals were orally administered ZEN at 40 μg/kg BW. Group C pigs were fed a placebo. The animals were fed complete diets in a restricted feeding regimen (Table 1). The daily dose of ZEN (40 µg/kg BW) was administered to each animal individually, which corresponds to exposure to 957–1014 µg ZEN/kg of a complete diet, depending on daily feed intake. Zearalenone was biosynthesized, purified and standardized by the Department of Chemistry of the Poznań University of Life Sciences. The experiment covered a period of 42 days. The mycotoxin was administered per os daily, in gelatine capsules before the morning feeding. The ZEN dose was adjusted to the body weight of the experimental animals. The mycotoxin was administered in capsules to prevent problems associated with uneven feed intake. Mycotoxin samples were diluted in 300 μL of 96% ethyl alcohol (96% ethyl alcohol, SWW 2442-90, Polskie Odczynniki Chemiczne SA, Gliwice, Poland) to the required dose level (based on body weight). Final solutions were stored at room temperature for 12 h to evaporate the solvent. The animals were weighed every 7 days to update mycotoxin doses for each gilt. Three animals from the experimental group and the control group each were sacrificed on Days 1, 7, 14, 21, 28, 35 and 42 (a total of 6 gilts in each week of exposure), excluding day 1, when only 3 control group animals were scarified. Every week, tissue samples were collected from the porcine gastrointestinal tract (duodenum, first and middle sections, jejunum, ileum, cecum, ascending colon, transverse colon, descending colon, middle section, and the liver, left lobe). Tissue samples were collected from the whole intestinal cross-sections.
Post-mortem tissue samples were collected from the duodenum, jejunum, ileum, cecum, ascending colon, transverse colon, descending colon and the liver after rinsing with phosphate buffer. Pure tissues were stored at −80 °C until shredding and extraction.
Tissue samples (2 g) were homogenized with 9 cm^3 of methanol for 4 min; they were transferred to centrifuge tubes with a minimal amount of the sediment, and the remainder was combined with 5 cm^3 of methanol and repeatedly homogenized. The extracts were combined and centrifuged for 10 min. The supernatant was transferred to a graduated test tube; its volume was read from the scale, and it was evaporated under a stream of nitrogen at a temperature of 60 °C to 0.1–0.2 cm^3 of water. The evaporated product was combined with 2 cm^3 of deionized water, 2 cm^3 of 0.2 M sodium acetate and 500 µL of […] solution. After 16 h of incubation at 37 °C, the reaction was stopped by adding 0.5 cm^3 of acetonitrile. The mixture was quantitatively transferred to a centrifuge tube; it was combined with 10 cm^3 of deionized water and centrifuged for 10 min at 3500 rpm. The supernatant was applied to the Zearala-Test™ column at the rate of 1–2 drops per second. Mycotoxins were eluted from the column with 1.5 mL of methanol; the solvent was evaporated, and the residue was reconstituted with 1 mL of methanol for HPLC analysis.
The concentrations of ZEN and its derivatives were determined by HPLC with the use of the Waters 2695 Separations Module, Waters 2475 Multi λ Fluorescence Detector and Waters 2996 Array Detector. Excitation and emission wavelengths were 274 and 440 nm, respectively. The reverse-phase column was C-18 Nova Pak (3.9 × 150 mm), and the mobile phase was acetonitrile-water-methanol (46:46:8, v/v/v) at a flow rate of 0.5 mL·min^−1. The mycotoxins were quantified by measuring the […] of the peaks based on the relevant calibration curves (correlation coefficient of 0.9996 for ZEN, 0.9989 for α-ZEL and 0.9976 for β-ZEL). Detection limits were determined at 0.001 µg·g^−1 for ZEN, 0.003 µg·g^−1 for α-ZEL and 0.002 µg·g^−1 for β-ZEL. […]

[1] = Week VI of exposure, total ZEN dose 1680 µg/kg BW
[2] = ascending colon, 40 μg/kg BW daily, read-out: ZEN Concentrations (x¯ and SD), Ascending Colon
[3] = ascending colon, 40 μg/kg BW, read-out: ZEN Concentrations (x¯ and SD), Ascending Colon
[4] = descending colon, 40 μg/kg BW daily, read-out: ZEN Concentrations (x¯ and SD), Descending Colon
[5] = duodenum, 40 μg/kg BW daily, read-out: ZEN Concentrations (x¯ and SD), Duodenum
[6] = liver, 40 μg/kg BW daily, read-out: ZEN Concentrations (x¯ and SD), Liver
[7] = transverse colon, 40 μg/kg BW daily, read-out: ZEN Concentrations (x¯ and SD), Transverse Colon
[8] = transverse colon, 40 μg/kg BW, read-out: ZEN Concentrations (x¯ and SD), Transverse Colon

Q: For `C[C@H]1CCCC(=O)CCC/C=C/c2cc(O)cc(O)c2C(=O)O1` [ZEN, zearalenone], which “Carryover Factor (CF), Duodenum” value [1] is on record?
A: Its value is 0.048.

Q: And the “Carryover Factor (CF), Ileum” value [1]?
A: Its value is 0.016.

Q: And the “Carryover Factor (CF), Jejunum” value [1]?
A: The value was 0.005.

Q: And the “Carryover Factor (CF), Liver” value [1]?
A: Its value is 0.0136.

Q: What about the “Carryover Factor (CF), Transverse Colon” value [1] of the same molecule?
A: Its value is 0.0039.

Q: And the “ZEN Concentrations (x¯ and SD), Ileum” value [1]?
A: The value was 27.52 ± 10.28 ng/g.

Q: What about the “ZEN Concentrations (x¯ and SD), Liver” value [1] of the same molecule?
A: Its value is 23.00 ± 0.79 ng/g.

Q: What about the “CF, Average values, Ascending Colon” value (average of Weeks I-VI) of the same molecule?
A: The value was 0.0033.

Q: What about the “CF, Average values, Cecum” value (average of Weeks I-VI) of the same molecule?
A: Its value is 0.0089.

Q: And the “CF, Average values, Descending Colon” value (average of Weeks I-VI)?
A: The value was 0.0688.

Q: What about the “CF, Average values, Duodenum” value (average of Weeks I-VI) of the same molecule?
A: Its value is 0.0375.

Q: And the “CF, Average values, Ileum” value (average of Weeks I-VI)?
A: The value was 0.0091.

Q: And the “CF, Average values, Jejunum” value (average of Weeks I-VI)?
A: The value was 0.0233.

Q: What about the “CF, Average values, Liver” value (average of Weeks I-VI) of the same molecule?
A: The value was 0.0159.

Q: What about the “CF, Average values, Transverse Colon” value (average of Weeks I-VI) of the same molecule?
A: The value was 0.0054.

Q: What about the “ZEN concentration, Average values, Ascending Colon” value (average of Weeks I-VI) of the same molecule?
A: The value was 2.805 ng/g.

Q: And the “ZEN concentration, Average values, Descending Colon” value (average of Weeks I-VI)?
A: Its value is 85.525 ng/g.

Q: And the “ZEN concentration, Average values, Duodenum” value (average of Weeks I-VI)?
A: Its value is 43.93 ng/g.

Q: And the “ZEN concentration, Average values, Ileum” value (average of Weeks I-VI)?
A: The value was 8.705 ng/g.

Q: And the “ZEN concentration, Average values, Jejunum” value (average of Weeks I-VI)?
A: The value was 18.208 ng/g.

Q: What about the “ZEN concentration, Average values, Liver” value (average of Weeks I-VI) of the same molecule?
A: Its value is 14.72 ng/g.

Q: What about the “average ileal concentrations of ZEN” value (between Week I and Week V) of the same molecule?
A: Its value is 4.9 ng/g.

Q: And the concentration at 4 weeks [2]?
A: The concentration at 4 weeks was 4.7 ng/g.

Q: What about the concentration at 5 weeks [2] of the same molecule?
A: The concentration at 5 weeks was 3.4 ± 0.54 ng/g.

Q: And the concentration at 1 week [3]?
A: The concentration at 1 week was 1.53 ± 1.95 ng/g.

Q: And the concentration at 2 weeks [3]?
A: Its concentration at 2 weeks is 1.59 ± 2.76 ng/g.

Q: What about the concentration at 3 weeks [3] of the same molecule?
A: The concentration at 3 weeks was 3.16 ± 1.79 ng/g.

Q: And the concentration at 6 weeks (ascending colon, 40 μg/kg BW, Week VI of exposure, total ZEN dose 1680 µg/kg BW, read-out: ZEN Concentrations (x¯ and SD), Ascending Colon)?
A: The concentration at 6 weeks was 2.46 ± 1.92 ng/g.

Q: What about the concentration at 5 weeks (cecum, 40 μg/kg BW daily, read-out: ZEN Concentrations (x¯ and SD), Cecum) of the same molecule?
A: The concentration at 5 weeks was 18.2 ng/g.

Q: What about the concentration at 6 weeks (cecum, 40 μg/kg BW, Week VI of exposure, total ZEN dose 1680 µg/kg BW, read-out: ZEN Concentrations (x¯ and SD), Cecum) of the same molecule?
A: Its concentration at 6 weeks is 13.7 ± 1.17 ng/g.

Q: And the concentration at 4 weeks [4]?
A: The concentration at 4 weeks was 205 ng/g.

Q: And the concentration at 5 weeks [4]?
A: Its concentration at 5 weeks is 177 ± 50.6 ng/g.

Q: And the concentration at 6 weeks (descending colon, 40 μg/kg BW, Week VI of exposure, total ZEN dose 1680 µg/kg BW, read-out: ZEN Concentrations (x¯ and SD), Descending Colon)?
A: The concentration at 6 weeks was 112 ± 13.7 ng/g.

Q: And the concentration at 1 week [5]?
A: Its concentration at 1 week is 8.6 ng/g.

Q: And the concentration at 5 weeks [5]?
A: The concentration at 5 weeks was 128 ng/g.

Q: And the concentration at 6 weeks (duodenum, 40 μg/kg BW, Week VI of exposure, total ZEN dose 1680 µg/kg BW, read-out: ZEN Concentrations (x¯ and SD), Duodenum)?
A: Its concentration at 6 weeks is 80.7 ± 4.34 ng/g.

Q: And the concentration at 6 weeks (ileum, 40 μg/kg BW daily, Week VI of exposure, total ZEN dose 1680 µg/kg BW, read-out: ZEN Concentrations (x¯ and SD), Ileum)?
A: The concentration at 6 weeks was 27.5 ng/g.

Q: What about the concentration at 4 weeks (jejunum, 40 μg/kg BW daily, read-out: ZEN Concentrations (x¯ and SD), Jejunum) of the same molecule?
A: Its concentration at 4 weeks is 43.8 ng/g.

Q: And the concentration at 6 weeks (jejunum, 40 μg/kg BW daily, Week VI of exposure, total ZEN dose 1680 µg/kg BW, read-out: ZEN Concentrations (x¯ and SD), Jejunum)?
A: The concentration at 6 weeks was 8.3 ng/g.

Q: And the concentration at 4 weeks [6]?
A: The concentration at 4 weeks was 18.2 ± 5.92 ng/g.

Q: What about the concentration at 5 weeks [6] of the same molecule?
A: The concentration at 5 weeks was 20 ± 2.43 ng/g.

Q: What about the concentration at 6 weeks (liver, 40 μg/kg BW daily, Week VI of exposure, total ZEN dose 1680 µg/kg BW, read-out: ZEN Concentrations (x¯ and SD), Liver) of the same molecule?
A: The concentration at 6 weeks was 23 ng/g.

Q: And the concentration at 3 weeks (liver, 40 μg/kg BW, read-out: ZEN Concentrations (x¯ and SD), Liver)?
A: Its concentration at 3 weeks is 13 ± 1.78 ng/g.

Q: And the concentration at 4 weeks [7]?
A: The concentration at 4 weeks was 7.4 ng/g.

Q: What about the concentration at 5 weeks [7] of the same molecule?
A: Its concentration at 5 weeks is 6.49 ± 0.96 ng/g.

Q: And the concentration at 2 weeks [8]?
A: The concentration at 2 weeks was 4.63 ± 3.86 ng/g.

Q: And the concentration at 3 weeks [8]?
A: Its concentration at 3 weeks is 3.94 ± 0.57 ng/g.

Q: And the concentration at 6 weeks (transverse colon, 40 μg/kg BW, Week VI of exposure, total ZEN dose 1680 µg/kg BW, read-out: ZEN Concentrations (x¯ and SD), Transverse Colon)?
A: The concentration at 6 weeks was 6.7 ± 0.25 ng/g.
